Structures are written as SMILES.

The EC50 is the concentration needed to bring the measured effect to its halfway point.

Holding throughout (assay type): cell-based
In assay [1] the target is T1, TLR7 (Homo sapiens, UniProt Q9NYK1).
T1 sequence (Q9NYK1 27-1049): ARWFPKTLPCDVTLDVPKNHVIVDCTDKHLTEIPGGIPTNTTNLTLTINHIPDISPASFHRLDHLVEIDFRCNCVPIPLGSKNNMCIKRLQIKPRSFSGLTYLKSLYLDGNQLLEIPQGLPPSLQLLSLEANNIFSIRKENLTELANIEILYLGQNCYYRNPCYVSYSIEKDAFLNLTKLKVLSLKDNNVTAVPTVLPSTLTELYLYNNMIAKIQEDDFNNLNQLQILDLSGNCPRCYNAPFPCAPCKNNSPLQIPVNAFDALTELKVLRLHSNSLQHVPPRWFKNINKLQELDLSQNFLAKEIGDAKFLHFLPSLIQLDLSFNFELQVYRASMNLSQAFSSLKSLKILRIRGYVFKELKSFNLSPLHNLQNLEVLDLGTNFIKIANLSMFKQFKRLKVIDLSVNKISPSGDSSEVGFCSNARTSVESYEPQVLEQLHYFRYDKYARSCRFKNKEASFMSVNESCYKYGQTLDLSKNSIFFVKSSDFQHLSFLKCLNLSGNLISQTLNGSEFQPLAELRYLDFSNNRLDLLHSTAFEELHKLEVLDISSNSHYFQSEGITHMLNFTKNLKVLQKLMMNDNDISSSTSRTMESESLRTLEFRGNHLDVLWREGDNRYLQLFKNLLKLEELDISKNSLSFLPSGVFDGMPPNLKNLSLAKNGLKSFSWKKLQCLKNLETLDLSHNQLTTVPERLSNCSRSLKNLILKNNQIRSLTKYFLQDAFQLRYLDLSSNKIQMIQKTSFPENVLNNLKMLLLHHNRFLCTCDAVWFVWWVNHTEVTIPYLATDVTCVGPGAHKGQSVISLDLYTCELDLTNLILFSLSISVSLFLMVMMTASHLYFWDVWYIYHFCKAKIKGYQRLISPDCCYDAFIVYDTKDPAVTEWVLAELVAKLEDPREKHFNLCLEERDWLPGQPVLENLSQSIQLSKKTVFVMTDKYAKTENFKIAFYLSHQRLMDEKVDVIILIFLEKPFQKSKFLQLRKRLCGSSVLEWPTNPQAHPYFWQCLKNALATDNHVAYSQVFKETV
The assay can be described thus: TLR7 activity, MC50 values (procedure only by reference to Gorden et al. and Zhu et al.). The settings on record: assay format not given. An excerpt:
(§1) Activity of the compounds can be assessed according to procedures described in, e.g., Gorden et al., Journal of Immunology 177, pp. 8164-8170 (2006) and Zhu et al., Molecular Immunology, vol. 45 (11), pp. 3238-3242 (2008).
MC50 values for TLR7 activity are, for example, as shown below: […]

Assay [2] deals with T2, TLR8 (Homo sapiens, UniProt Q9NR97).
T2 sequence (Q9NR97 27-1041): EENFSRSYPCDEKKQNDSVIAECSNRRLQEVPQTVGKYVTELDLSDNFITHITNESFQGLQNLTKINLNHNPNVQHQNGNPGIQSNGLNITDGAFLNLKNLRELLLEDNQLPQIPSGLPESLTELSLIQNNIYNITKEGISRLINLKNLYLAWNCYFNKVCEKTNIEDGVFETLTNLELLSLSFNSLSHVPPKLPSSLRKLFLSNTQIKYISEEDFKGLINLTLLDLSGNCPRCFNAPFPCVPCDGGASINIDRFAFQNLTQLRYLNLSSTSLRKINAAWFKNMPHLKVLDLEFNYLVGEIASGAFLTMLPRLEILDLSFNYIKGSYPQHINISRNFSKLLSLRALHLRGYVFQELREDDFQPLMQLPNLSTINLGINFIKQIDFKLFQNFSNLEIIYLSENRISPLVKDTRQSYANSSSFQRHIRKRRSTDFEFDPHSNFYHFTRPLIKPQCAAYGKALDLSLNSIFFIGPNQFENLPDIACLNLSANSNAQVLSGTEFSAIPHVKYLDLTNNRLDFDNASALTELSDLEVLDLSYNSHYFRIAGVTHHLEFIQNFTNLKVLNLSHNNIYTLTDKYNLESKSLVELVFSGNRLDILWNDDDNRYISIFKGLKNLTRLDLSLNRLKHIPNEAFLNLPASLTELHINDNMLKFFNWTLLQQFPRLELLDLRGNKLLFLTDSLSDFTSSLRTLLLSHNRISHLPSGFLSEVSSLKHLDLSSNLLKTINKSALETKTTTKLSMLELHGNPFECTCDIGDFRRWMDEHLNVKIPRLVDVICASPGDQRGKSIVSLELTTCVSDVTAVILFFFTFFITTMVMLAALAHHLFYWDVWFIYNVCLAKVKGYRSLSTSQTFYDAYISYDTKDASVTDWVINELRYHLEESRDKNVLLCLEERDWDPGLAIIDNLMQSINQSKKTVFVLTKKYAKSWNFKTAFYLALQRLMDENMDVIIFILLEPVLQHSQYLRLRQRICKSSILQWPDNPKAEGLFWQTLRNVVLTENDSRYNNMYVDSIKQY
In words: PBMC assay for TLR8 (TNFα in supernatants by ELISA). Further details: Peripheral blood mononuclear cells (PBMCs) from human blood were isolated; endogenous in cells; host or cells: human PBMCs. The settings on record: human PBMCs incubated with compound overnight, MC50 = concentration at which 50% of the maximum induction is seen. The method, boiled down:
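Human PBMCs were incubated overnight with compound. TNFα (TLR8) and IFNα (TLR7) in supernatants were quantified by ELISA. MC50 values are reported in order-of-magnitude bins (nM).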
A general note: ELISA stands for enzyme-linked immunosorbent assay.

For assay [3], the target named is T1, TLR7. In words: PBMC assay for TLR7 (IFNα in supernatants by ELISA). Set-up: Peripheral blood mononuclear cells (PBMCs) from human blood were isolated; endogenous in cells; host or cells: human PBMCs. The settings on record: human PBMCs incubated with compound overnight, MC50 = concentration at which 50% of the maximum induction is seen. Here is the method: Peripheral blood mononuclear cells (PBMCs) from human blood were isolated using BD Vacutainer Cell Preparation Tubes with sodium citrate. Cells were incubated with compound overnight. TLR8 activity was assayed by measuring the amount of TNFα in supernatants by ELISA. TLR7 activity was assayed by measuring the amount of IFNα in supernatants by ELISA (R&D Systems). […] The results of this assay are shown below in Tables 2 and 3.
MC50 numbers are represented as factors of ten, for example, + indicates an MC50 value of ×10^4, or a value in the tens of thousands of nanomolar (nM range); ++ indicates an MC50 value of ×10^3, or a value in the thousands; +++ indicates an MC50 value of ×10^2, or a value in the hundreds; and ++++ indicates an MC50 value of ×10^1 or 10°, or a value in the tens or ones.

For assay [4], the target named is T2, TLR8. In words: TLR8 activity, MC50 values (procedure only by reference to Gorden et al. and Zhu et al.). The settings on record: assay format not given.
Description: as §1
MC50 values for TLR8 activity are, for example, as shown below: […]

Take `CCCN(CC(N)=O)C(=O)C1=Cc2ccc(-c3ccc(C(=O)N4CCCC4)cc3)cc2N=C(N)C1` [Compound 178, (1E,4E)-2-amino-N-(2-amino-2-oxoethyl)-N-propyl-8-(4-(pyrrolidine-1-carbonyl)phenyl)-3H-benzo[b]azepine-4-carboxamide]: the EC50 on TLR7 [1] was 0.767 µM; at TLR8 [2] it was 0.1 to 1 µM; on TLR7 [3], 0.1 to 1 µM.
As for `CCCN(CCC)C(=O)C1=Cc2ccc(-c3ccc(C(=O)N(C)C)cc3)cc2N=C(N)C1` [Compound 124, (1E,4E)-2-amino-8-(4-(dimethylcarbamoyl)phenyl)-N,N-dipropyl-3H-benzo[b]azepine-4-carboxamide], the EC50 on TLR8 [4] was 0.104 µM; on TLR8 [2] it was 0.1 to 1 µM; at TLR7 [3] it was 1 to 10 µM.
As to `CCCN(CCC)C(=O)C1=Cc2ccc(-c3cncnc3)cc2N=C(N)C1` [Compound 135, (1E,4E)-2-amino-N,N-dipropyl-8-(pyrimidin-5-yl)-3H-benzo[b]azepine-4-carboxamide], the figures for the EC50 at TLR7 [1], at TLR8 [2] and on TLR7 [3] were 0.744 µM, 0.001 to 0.1 µM and 0.1 to 1 µM, respectively.
